Data published in US20020010210A1, “PHARMACEUTICAL PREPARATION AND METHOD FOR TREATING CANCER” (priority 1997, published 2002).
Where a name gives a salt, the structure may show the parent alone.

Assays:
[1] = tested on: spontaneous breast cancer rat cells (SST-2); assay: Lung metastasis of SST-2 in SHR rats, ascorbic acid derivative combined with known anticancer agent (Example 4); type: in vivo
Experimental: 1×100,000 spontaneous breast cancer rat cells (SST-2) were subcutaneously implanted into the back of a rat (SHR rat) (5 rats per group) suffering from spontaneous hypertension. After 35 days, the rats were sacrificed, and the number of colonies formed were measured to examine the degree of metastasis of SST-2 to the lung.
The ascorbic acid derivatives used were L-ascorbic acid-2-phosphate-6-palmitate, L-ascorbic acid-6-benzoate (reference compound) and magnesium L-ascorbic acid-2-phosphate.
Each of the groups treated with an ascorbic acid derivative was subjected to a test of administering the ascorbic acid derivative alone and to a test of administering the ascorbic acid derivative in combination with a known anticancer agent as shown in Table 4. Furthermore, tests of administering the anticancer agents alone were conducted. Over the period of from 7 days prior to implantation to 34 days after the implantation, the ascorbic acid derivative was injected through a vein in the tail region at a dose of 1 mg/1 day/rat. Each of the known anticancer agents was perorally administered in a minimum dose by reference to the concentration for a single use case described in the publication, Tyakuhin Yoran (Medical Product Handbook), 4th Edition, pp. 1474-1509, Yakugyo Jiho-Sha (1989), and the number of colonies formed after metastasis was compared.

[2] = tested on: spontaneous breast cancer rat cells (SST-2); assay: as above; type: in vivo; remark: listed apart in the source
[3] = ascorbic acid derivative 1 mg/1 day/rat tail vein, day -7 to day 34, known anticancer agent perorally in minimum dose, colonies after 35 days

Row | Molecule | Cancer metastasis inhibitory effect of combination with L-Ascorbic Acid-2-Phosphate-6-Palmitate versus each agent alone [1, 3] | Cancer metastasis inhibitory effect of combination with L-Ascorbic Acid-2-Phosphate-6-Benzoate versus each agent alone [2, 3] | Cancer metastasis inhibitory effect of combination with L-Ascorbic Acid-6-Palmitate versus each agent alone [2, 3] | Cancer metastasis inhibitory effect of combination with L-Ascorbic Acid-2-Phosphate-6-Palmitate versus each agent alone ([1]; rat, in vivo) | Cancer metastasis inhibitory effect of combination with L-Ascorbic Acid-2-Phosphate-6-Benzoate versus each agent alone ([2]; rat, in vivo) | Cancer metastasis inhibitory effect of combination with L-Ascorbic Acid-6-Palmitate versus each agent alone ([2]; rat, in vivo)
1 | CS(=O)(=O)OCCCNCCCOS(C)(=O)=O.Cc1ccc(S(=O)(=O)O)cc1 [Protecton (R)] | + | + | − |  |  | 
2 | CC(=O)O[C@@H]1C(=O)O[C@H]2[C@@H]1OC(=O)[C@@H]2OC(C)=O [aceglatone] | + | + | − |  |  | 
3 | O=c1[nH]cc(F)c(=O)[nH]1 [fluorouracil] | + | + | − |  |  | 
4 | Cc1ncc(CNC(=O)N(CCCl)N=O)c(N)n1 [nimustine hydrochloride] |  |  |  | + | + | −
5 | CCCCCCCCCCCCCCCCCCCCCC(=O)Nc1ccn([C@@H]2O[C@H](CO)[C@@H](O)[C@@H]2O)c(=O)n1 [enocitabine] | + | ± | − |  |  | 
6 | Platelet Factor-4 |  |  |  | + | + | −
7 | CNNCc1ccc(C(=O)NC(C)C)cc1 [procarbazine hydrochloride] | + | + | − |  |  | 
8 | O=P1(N(CCCl)CCCl)NCCCO1 (stereo not drawn) [cyclophosphamido] | + | + | − |  |  | 
9 | N=c1ccn2c(n1)O[C@H]1[C@H](O)[C@@H](CO)O[C@H]12 [ANCITABINE hydrochloride] | + | + | − |  |  | 
10 | lentinan | + | + | − |  |  | 
11 | CCCCCCNC(=O)n1cc(F)c(=O)[nH]c1=O [carmofur] | + | + | − |  |  | 
12 | S=c1nc[nH]c2nc[nH]c12 [meercaptopurine] |  |  |  | + | + | −
13 | C[C@]12C[C@H]3S[C@H]3C[C@@H]1CC[C@@H]1[C@@H]2CC[C@]2(C)[C@@H](O)CC[C@@H]12 [epitiostanol] |  |  |  | + | + | −
14 | OC[C@H]1O[C@@H](n2cnc3c(S)ncnc32)[C@H](O)[C@@H]1O [thioinosine] | + | + | − |  |  | 
